Data on eight compounds can be found in US10087148B2, “Quinazolines as biogenic amine transport modulators” (THE UNITED STATES OF AMERICA AS REPRESENTED BY THE …, priority 2014, dated 2018).

Read-outs that look alike come from different tables or passages of the source.

Assay [1] has as its target T1, dopamine transporter (DAT) (Rattus norvegicus (Rat), UniProt P23977). Briefly: [3H]dopamine (DA) uptake inhibition in rat brain (caudate) synaptosomes. The assay is classed as biochemical.
The target of assay [2] is serotonin transporter (SERT) (Rattus norvegicus (Rat), UniProt P31652). In words: [3H]serotonin (5-HT) uptake inhibition in rat brain synaptosomes. It counts as biochemical. As to conditions: for Emax: read-out: SERT Uptake Emax. The protocol:
Uptake inhibition assay for the serotonin transporter was conducted in rat brain synaptosomes as described elsewhere with minor modifications (Rothman et al., Synapse 39, 32-41 (2001)). Freshly removed whole brain minus cerebellum and caudate was homogenized in 10% ice-cold sucrose with 12 strokes of a hand-held Potter-Elvehjem homogenizer followed by centrifugation at 1000×g for 10 min. The supernatants were saved on ice and used immediately. Transporter activity at SERT was assessed using 5 nM [^3H]serotonin. The assay buffer was Krebs-phosphate buffer containing 154.4 mM NaCl, 2.9 mM KCl, 1.1 mM CaCl2, 0.83 mM MgCl2, 5 mM glucose, 1 mg/mL ascorbic acid, and 50 μM pargyline. […] Uptake inhibition assays were conducted at 25° C. and were initiated by adding 100 μL of tissue to 900 μL assay buffer containing test drug and [^3H]serotonin. Test drugs were diluted in assay buffer containing 1 mg/mL bovine serum albumin. Nonspecific uptake was measured by incubating in the presence of 10 μM indatraline. The reactions were stopped after 30 min by rapid vacuum filtration with a cell harvester (BRANDEL) over GF/B filters (Whatman) presoaked in wash buffer maintained at 25° C. (10 mM Tris-HCl, pH 7.4/150 mM NaCl). Filters were rinsed with 6 mL wash buffer and retained tritium was quantified by a MicroBeta liquid scintillation counter (PerkinElmer) after overnight extraction in 0.6 mL of liquid scintillation cocktail (Cytoscint, ICN). The data from three experiments were pooled and fit to a dose-response curve equation (using Kaleidagraph), to yield an Emax and EC50 value.

The target in assay [3] is norepinephrine transporter (NET) (Rattus norvegicus, UniProt Q63380). Briefly: [3H]norepinephrine (NE) uptake inhibition in rat brain synaptosomes. The settings on record: for Emax: read-out: NET Uptake Emax; for IC50: read-out: NET Uptake IC50, mean ± S.D., n = 3. The assay is classed as biochemical. As to the method: Uptake inhibition assay for the norepinephrine transporter was conducted in rat brain synaptosomes as described elsewhere with minor modifications (Rothman et al., Synapse 39, 32-41 (2001)). Freshly removed whole brain minus cerebellum and caudate was homogenized in 10% ice-cold sucrose with 12 strokes of a hand-held Potter-Elvehjem homogenizer followed by centrifugation at 1000×g for 10 minutes. The supernatants were saved on ice and used immediately. Transporter activity at NET was assessed using 10 nM [^3H]norepinephrine. The assay buffer was Krebs-phosphate buffer containing 154.4 mM NaCl, 2.9 mM KCl, 1.1 mM CaCl2, 0.83 mM MgCl2, 5 mM glucose, 1 mg/mL ascorbic acid, and 50 μM pargyline. […] Uptake inhibition assays were conducted at 37° C. and were initiated by adding 100 μL of tissue to 900 μL assay buffer containing test drug and [^3H]norepinephrine. Test drugs were diluted in assay buffer containing 1 mg/mL bovine serum albumin. Nonspecific uptake was measured by incubating in the presence of 10 μM indatraline. The reactions were stopped after 10 minutes by rapid vacuum filtration with a cell harvester (BRANDEL) over GF/B filters (Whatman) presoaked in wash buffer maintained at 25° C. (10 mM Tris-HCl, pH 7.4/150 mM NaCl). Filters were rinsed with 6 mL wash buffer and retained tritium was quantified by a MicroBeta liquid scintillation counter (PerkinElmer) after overnight extraction in 0.6 mL of liquid scintillation cocktail (Cytoscint, ICN). The data from three experiments were pooled and fit to a dose-response curve equation (using Kaleidagraph), to yield an Emax and EC50 value.
norepinephrine transporter (NET), sequence (Q63380 1-617): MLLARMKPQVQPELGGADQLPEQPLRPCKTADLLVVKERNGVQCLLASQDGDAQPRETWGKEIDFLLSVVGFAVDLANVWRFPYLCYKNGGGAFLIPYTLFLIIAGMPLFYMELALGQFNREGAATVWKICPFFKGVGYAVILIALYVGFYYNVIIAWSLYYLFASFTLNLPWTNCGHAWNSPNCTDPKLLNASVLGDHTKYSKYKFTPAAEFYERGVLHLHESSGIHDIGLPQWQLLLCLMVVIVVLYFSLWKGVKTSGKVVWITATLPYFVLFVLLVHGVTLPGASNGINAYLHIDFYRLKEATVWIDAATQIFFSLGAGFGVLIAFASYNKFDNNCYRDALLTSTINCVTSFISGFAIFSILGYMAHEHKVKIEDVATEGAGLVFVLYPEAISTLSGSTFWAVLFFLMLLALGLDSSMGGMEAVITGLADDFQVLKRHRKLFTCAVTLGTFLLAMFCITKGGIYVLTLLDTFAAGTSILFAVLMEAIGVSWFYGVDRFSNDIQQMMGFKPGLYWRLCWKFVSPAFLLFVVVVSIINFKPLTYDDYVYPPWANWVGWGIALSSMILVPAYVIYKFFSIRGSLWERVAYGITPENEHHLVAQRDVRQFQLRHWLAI

Assay [4] concerns the target T1, dopamine transporter (DAT). In words: Dopamine transporter-mediated [3H]MPP+ release (d-amphetamine-induced, shift experiments) in rat caudate synaptosomes. The settings on record: for Apparent Kc: [Blocker]/((EC50-2/EC50-1) − 1); for Emax: read-out: d-Amphetamine Emax in presence of blocker. It counts as biochemical.
Assay [5] addresses T2, DAT (Rattus norvegicus (Rat), UniProt P23977). Briefly: Inhibition of [3H]WIN35428 binding to rat caudate DAT. The settings on record: [3H]WIN35428; for Emax / IC50 / DAT Binding Emax / DAT Binding IC50: mean ± S.D., n = 3; for IC50 / DAT Binding IC50: unit as printed in head (text gives 1100 nM where table prints 1.1). As to the method: All of the test compounds were synthesized as described herein. […] The data from three experiments were pooled and fit to a dose-response curve equation (using KaleidaGraph; Synergy Software, Reading, Pa.) to yield an Emax and IC50 value. […] Selected compounds were also tested for their ability to inhibit [^3H]WIN35428 binding to rat caudate DAT.

The target in assay [6] is T2, DAT. Briefly: d-amphetamine-induced, DAT-mediated [3H]DA release (shift experiments). The assay is classed as biochemical. As to conditions: for Apparent Kc: [Blocker]/((EC50-2/EC50-1) − 1); for Emax: read-out: d-Amphetamine Emax in presence of blocker, blocker concentration per row, mean ± S.D., n = 3.
Setting [7] is: mean ± S.D., n = 3, read-out: DAT Uptake Emax.
[8] abbreviates: values in Table 9, read-out: Emax for DAT Uptake Inhibition.
Where [9] appears, read: [3H]MPP+ release, blocker concentration per row, mean ± S.D., n = 3.

T1 sequence (P23977 whole entry): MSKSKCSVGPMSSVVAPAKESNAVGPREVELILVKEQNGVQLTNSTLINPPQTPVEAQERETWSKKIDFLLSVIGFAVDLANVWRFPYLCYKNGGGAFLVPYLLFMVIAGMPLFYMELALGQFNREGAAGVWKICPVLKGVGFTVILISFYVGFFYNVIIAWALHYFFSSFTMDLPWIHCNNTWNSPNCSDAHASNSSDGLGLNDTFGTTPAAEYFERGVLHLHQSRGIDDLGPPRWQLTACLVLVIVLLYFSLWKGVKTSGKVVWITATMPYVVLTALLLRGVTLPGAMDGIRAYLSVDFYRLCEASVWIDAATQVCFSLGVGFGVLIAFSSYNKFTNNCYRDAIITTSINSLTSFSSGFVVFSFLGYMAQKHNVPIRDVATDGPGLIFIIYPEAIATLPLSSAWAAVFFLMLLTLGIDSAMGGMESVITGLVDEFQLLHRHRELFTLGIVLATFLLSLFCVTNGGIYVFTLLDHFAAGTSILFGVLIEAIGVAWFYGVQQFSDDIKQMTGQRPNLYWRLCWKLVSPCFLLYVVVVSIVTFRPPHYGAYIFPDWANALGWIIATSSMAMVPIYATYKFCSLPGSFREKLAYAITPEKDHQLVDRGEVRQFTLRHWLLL
T2 sequence (P23977 whole entry): as above
serotonin transporter (SERT), sequence (P31652 whole entry): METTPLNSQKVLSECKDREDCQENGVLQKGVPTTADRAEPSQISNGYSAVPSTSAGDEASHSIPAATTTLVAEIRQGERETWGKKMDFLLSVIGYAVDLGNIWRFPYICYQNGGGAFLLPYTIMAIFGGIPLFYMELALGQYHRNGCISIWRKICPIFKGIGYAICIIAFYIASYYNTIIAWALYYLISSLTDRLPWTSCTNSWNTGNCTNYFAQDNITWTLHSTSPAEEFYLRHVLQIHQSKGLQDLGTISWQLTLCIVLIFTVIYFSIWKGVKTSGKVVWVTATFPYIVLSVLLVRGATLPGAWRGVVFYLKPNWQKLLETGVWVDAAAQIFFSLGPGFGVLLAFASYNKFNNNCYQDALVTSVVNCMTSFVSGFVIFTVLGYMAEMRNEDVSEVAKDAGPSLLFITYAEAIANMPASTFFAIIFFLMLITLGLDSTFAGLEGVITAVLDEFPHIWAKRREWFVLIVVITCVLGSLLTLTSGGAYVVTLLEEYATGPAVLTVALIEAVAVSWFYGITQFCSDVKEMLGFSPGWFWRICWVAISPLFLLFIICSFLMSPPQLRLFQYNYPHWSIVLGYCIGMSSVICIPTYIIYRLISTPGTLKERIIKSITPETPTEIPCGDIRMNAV

Broadly, the IC50 is the point on the concentration scale where inhibition reaches its midpoint. For the compound `c1ccc(C(CCNc2nc(-c3ccc4[nH]ccc4c3)nc3ccccc23)c2ccccc2)cc1` [SRI-29213], the IC50 in assay [1] (mean ± S.D., n = 3) was 16 ± 4 nM; in assay [2] (mean ± S.D., n = 3) it was 89 ± 51 nM; in assay [3], 346 ± 59 nM; on DAT [5], 200 nM. In addition, the Emax worked out at 81 ± 3% in assay [1] (setting [7]); 81% in assay [1] (setting [8]); 43 ± 4% in assay [2] (mean ± S.D., n = 3); 77 ± 3% in assay [3]; 78 ± 2% in assay [4] (setting [9]); 94 ± 2% at DAT [5]. Moreover, the Emax at DAT [6] was found to be 71 ± 3%. The “Apparent Kc” value is 886 nM in assay [4] ([3H]MPP+ release) and 6.7 µM on DAT [6].
In the case of `c1ccc(C(CNc2nc(-c3ccc4nccn4c3)nc3ccccc23)c2ccccc2)cc1` [SRI-29574], the “Efficacy of [3H]DA (DAT) uptake inhibition, in words” value in assay [1] is “partially inhibited”. For the same compound, the Emax was 68 ± 2% in assay [1] (setting [7]); 68% in assay [1] (setting [8]); 52 ± 2% in assay [2] (mean ± S.D., n = 3); 72 ± 4% in assay [3]; 103 ± 3% in assay [4] (setting [9]); 95 ± 2% on DAT [6]. Further, the IC50 in assay [3] worked out at 52 ± 15 nM. The “Apparent Kc” value in assay [4] ([3H]MPP+ release) was -368 nM; at DAT [6] it was -0.239 µM. Also, the “Effect on d-amphetamine-induced DAT-mediated [3H]MPP+ release curve, in words” value in assay [4] (blocking concentration ~25 times DAT uptake IC50) was “increased EC50 and decreased Emax”. In addition, on DAT [5], the “Inhibition of DAT binding, in words” value is “inactive”. Besides, the “DAT Binding Emax” value at DAT [5] is “Inactive”. The “DAT Binding IC50” value on DAT [5] was “Inactive”.
`c1ccc(C(CNc2nc(-c3ccc4nccn4c3)nc3ccccc23)c2ccc[nH]2)cc1` (stereo not drawn) [SRI-30826]: the Emax in assay [1] (setting [7]) was determined as 64 ± 2%; in assay [1] (setting [8]), 64%; in assay [2] (mean ± S.D., n = 3), 56 ± 2%; in assay [3], 81 ± 2%; in assay [4] (setting [9]), 105 ± 4%; at DAT [5], 42 ± 3%. The IC50 in assay [3] stood at 88 ± 15 nM; on DAT [5] it was 1280 ± 400 nM. Also, the “Apparent Kc” value in assay [4] ([3H]MPP+ release) is given as 1600 nM.
For `Cc1cc2nccn2cc1-c1nc(NCC(c2ccccc2)c2ccccc2)c2ccccc2n1` [SRI-30827], the Emax in assay [1] (setting [7]) was found to be 63 ± 2%; in assay [1] (setting [8]) it was 63%; in assay [2] (mean ± S.D., n = 3) it was 58 ± 3%; in assay [3], 67 ± 3%; in assay [4] (setting [9]) it was 104 ± 3%; at DAT [5], 79 ± 3%. The IC50 in assay [3] stood at 21 ± 7 nM; on DAT [5], 1990 ± 330 nM. The “Apparent Kc” value in assay [4] ([3H]MPP+ release) is reported as 267 nM.
With `Cl.Fc1ccc2c(NCC(c3ccccc3)c3ccccc3)nc(-c3ccc4nccn4c3)nc2c1` [SRI-31034], the Emax was determined as 69 ± 1% in assay [1] (read-out: DAT Uptake Emax); 69% in assay [1] (read-out: Emax for DAT Uptake Inhibition); 49 ± 2% in assay [2]; 63 ± 3% in assay [3]; 104 ± 5% in assay [4]. Further, the IC50 in assay [3] turned out to be 94 ± 22 nM. In addition, the “Apparent Kc” value in assay [4] ([3H]MPP+ release) is listed as 3200 nM. Also, the “DAT Binding Emax” value at DAT [5] is recorded as “Inactive”. Also, at DAT [5], the “DAT Binding IC50” value is “Inactive”.
`Cc1cc2nccn2cc1-c1nc(NCC(c2ccccc2)c2ccc[nH]2)c2ccccc2n1` (stereo not drawn) [SRI-31040]: the Emax in assay [1] (setting [7]) is 69 ± 1%; in assay [1] (setting [8]) it was 69%; in assay [2] (mean ± S.D., n = 3), 54 ± 2%; in assay [3], 70 ± 4%; in assay [4] (setting [9]), 105 ± 3%; at DAT [5], 91 ± 7%. Further, the IC50 in assay [3] was 11 ± 4 nM; on DAT [5], 3740 ± 1100 nM. The “Apparent Kc” value in assay [4] ([3H]MPP+ release) came out at 55 nM.
For `Cc1cc2nccn2cc1-c1nc(NCC(c2ccccc2)c2ccncc2)c2ccccc2n1` (stereo not drawn) [SRI-31142], the Emax was 72 ± 2% in assay [1] (setting [7]); 72% in assay [1] (setting [8]); 48 ± 1% in assay [2] (mean ± S.D., n = 3); 61 ± 2% in assay [3]; 103 ± 3% in assay [4] (setting [9]); 92 ± 4% at DAT [5]. In addition, the results for the IC50 (in assay [3]; at DAT [5]) were 17 ± 4 nM and 2340 ± 450 nM, respectively. Further, the “Apparent Kc” value in assay [4] ([3H]MPP+ release) was 400 nM.
Take `Cc1cc2nccn2cc1-c1nc(NCC(O)(c2ccccc2)c2ccccc2)c2ccccc2n1` [SRI-31143]: the Emax in assay [1] (setting [7]) is 69 ± 1%; in assay [1] (setting [8]), 67%; in assay [2] (mean ± S.D., n = 3), 51 ± 2%; in assay [3], 69 ± 4%; in assay [4] (setting [9]), 104 ± 4%; on DAT [5], 52 ± 8%. For the same compound, the figures for the IC50 (in assay [3]; at DAT [5]) were 16 ± 5 nM and 3390 ± 1990 nM, respectively. Besides, in assay [4] ([3H]MPP+ release), the “Apparent Kc” value worked out at 46 nM.
